Experiment [1] has as its system Mus musculus. Briefly: Antinociceptive activity in ip dosed mouse administered 30 mins prior to testing by hot plate test. Format: functional.
Experiment [2] in a line: Displacement of Torpedo californica electroplax muscle type (alpha1)2beta1gammadelta nicotine acetylcholine receptor (unknown origin) after 90 mins by radioligand displacement assay. Details: species or system Tetronarce californica.
Experiment [3] deals with T1, Neuronal acetylcholine receptor subunit alpha-7 (Rattus norvegicus, UniProt Q05941). As to the kind of experiment: Displacement of [3H]-MLA from Sprague-Dawley rat brain alpha7 nicotine acetylcholine receptor after 90 mins by radioligand displacement assay. A general note: Displacement assays read how much labelled ligand stays bound in the presence of the test substance.
T1 sequence (Q05941 whole entry): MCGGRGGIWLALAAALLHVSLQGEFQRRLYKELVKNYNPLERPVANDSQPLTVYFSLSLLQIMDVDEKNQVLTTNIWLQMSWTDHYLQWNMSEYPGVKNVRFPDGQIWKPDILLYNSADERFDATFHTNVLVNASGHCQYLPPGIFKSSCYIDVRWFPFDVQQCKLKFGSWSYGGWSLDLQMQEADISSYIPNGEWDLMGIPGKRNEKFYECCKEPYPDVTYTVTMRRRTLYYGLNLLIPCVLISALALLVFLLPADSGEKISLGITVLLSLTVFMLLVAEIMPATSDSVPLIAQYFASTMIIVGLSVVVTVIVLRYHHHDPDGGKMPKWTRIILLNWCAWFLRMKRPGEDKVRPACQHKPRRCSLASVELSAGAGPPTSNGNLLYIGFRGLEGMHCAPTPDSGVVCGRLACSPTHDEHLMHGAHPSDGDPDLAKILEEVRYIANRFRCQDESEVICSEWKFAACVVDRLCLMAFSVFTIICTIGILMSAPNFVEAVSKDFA

Experiment [4] addresses T2, Neuronal acetylcholine receptor; alpha4/beta2 (Rattus norvegicus, UniProt P09483+P12390). Briefly: Displacement of [3H]-epibatidine from Sprague-Dawley rat brain alpha4beta2 nicotine acetylcholine receptor after 90 mins by radioligand displacement assay.
Experiment [5] addresses T2, Neuronal acetylcholine receptor; alpha4/beta2. Briefly: Displacement of [3H]-nicotine from alpha4beta2 nicotine acetylcholine receptor in rat brain membranes after 90 mins by liquid scintillation spectrometric analysis. Format: cell membranes, Membrane.
Experiment [6] has as its system Mus musculus. Briefly: Antinociceptive activity in sc dosed ICR mouse administered 5 mins prior to testing by tail-flick method. Format: functional. A general note: Thermal pain tests record how soon the animal reacts.
Experiment [7] has as its target T1, Neuronal acetylcholine receptor subunit alpha-7. As to the kind of experiment: Displacement of [3H]-MLA from alpha7 nicotine acetylcholine receptor in rat brain minus cerebellum after 60 mins by scintillation counting analysis. Format: tissue-based.

The structures appear in SMILES notation.

The record followed here is ChEMBL document CHEMBL3593203, “The twin drug approach for novel nicotinic acetylcholine receptor ligands” (Bioorg Med Chem, 2015).

T2 sequence (P09483 whole entry): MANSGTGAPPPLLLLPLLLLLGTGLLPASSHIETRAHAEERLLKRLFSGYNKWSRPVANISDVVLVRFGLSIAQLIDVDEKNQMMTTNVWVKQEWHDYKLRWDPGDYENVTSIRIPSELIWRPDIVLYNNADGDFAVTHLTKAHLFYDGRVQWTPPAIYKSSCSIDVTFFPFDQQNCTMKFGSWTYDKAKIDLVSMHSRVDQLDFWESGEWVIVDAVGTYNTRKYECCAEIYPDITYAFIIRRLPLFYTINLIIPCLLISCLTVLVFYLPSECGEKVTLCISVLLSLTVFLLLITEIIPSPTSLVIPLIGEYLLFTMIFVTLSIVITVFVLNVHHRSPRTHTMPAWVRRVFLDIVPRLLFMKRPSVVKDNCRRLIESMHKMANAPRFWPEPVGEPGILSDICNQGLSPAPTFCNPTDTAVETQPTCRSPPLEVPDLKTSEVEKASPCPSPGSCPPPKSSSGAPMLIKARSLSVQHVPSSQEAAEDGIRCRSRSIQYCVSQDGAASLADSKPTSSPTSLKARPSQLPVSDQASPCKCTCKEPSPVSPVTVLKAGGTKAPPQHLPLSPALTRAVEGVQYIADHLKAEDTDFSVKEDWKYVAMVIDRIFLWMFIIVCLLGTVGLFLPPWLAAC
T2 sequence (P12390 whole entry): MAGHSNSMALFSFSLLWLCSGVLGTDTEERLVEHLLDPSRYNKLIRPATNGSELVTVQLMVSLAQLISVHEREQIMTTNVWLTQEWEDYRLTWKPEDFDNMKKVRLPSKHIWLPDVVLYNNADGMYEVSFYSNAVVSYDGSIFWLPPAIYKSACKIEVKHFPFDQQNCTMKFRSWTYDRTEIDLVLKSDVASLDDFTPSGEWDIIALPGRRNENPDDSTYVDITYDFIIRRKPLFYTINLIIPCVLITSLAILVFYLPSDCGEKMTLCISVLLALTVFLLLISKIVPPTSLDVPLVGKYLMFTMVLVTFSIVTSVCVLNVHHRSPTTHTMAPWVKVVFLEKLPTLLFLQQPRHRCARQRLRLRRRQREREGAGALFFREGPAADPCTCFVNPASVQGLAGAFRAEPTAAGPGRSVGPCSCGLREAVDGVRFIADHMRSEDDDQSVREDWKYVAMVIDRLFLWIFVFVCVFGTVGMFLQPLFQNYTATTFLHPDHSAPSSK

Compound `c1cncc(N2CC3CNCC(C3)C2)c1` gave an MED in the experiment on Mus musculus [1] of 1.9 µmol/kg.
In general, Ki refers to a measure of affinity in units of concentration, obtained from inhibition or displacement. Regarding `CN(C)CCOc1cncc(-c2cncc(OCCN(C)C)c2)c1`, the Ki was 905 nM in experiment [2], more than 1000 nM in experiment [3] and 290 nM in experiment [4].
In the same order, the values of `CN(C)CCOc1cncc(N2CC3CNCC(C3)C2)c1` are more than 1000 nM, more than 1000 nM and 0.188 nM.
With `CN(C)CCOc1cc(F)cc(N2CC3CNCC(C3)C2)c1`, the Ki in experiment [2] was more than 1000 nM; in experiment [3], more than 1000 nM; in experiment [4] it was 186 nM.
With `CN(C)CCOc1cncc(N2CCCNCC2)c1`, the results for the Ki in experiment [2], in experiment [3] and in experiment [4] were more than 1000 nM, more than 1000 nM and 6.9 nM, respectively.
The compound `CN(C)CCOc1cc(F)cc(N2CCCNCC2)c1` registered a Ki in experiment [4] of more than 1000 nM.
Same read-out and setting: the figure for `CN(C)CCOc1cc(N2CCCNCC2)cc(F)c1F` is more than 1000 nM; for `CN(C)CCOc1cncc(N2CCCN(C)CC2)c1` it is 212 nM; for `CN(C)CCOc1cc(F)cc(N2CCCN(C)CC2)c1` it is more than 1000 nM.
Take `CN(C)CCOc1cc(N2CCCN(C)CC2)cc(F)c1F`: the Ki in experiment [4] was more than 1000 nM.
Regarding `CN(C)CCOc1cncc(N2CCNCC2)c1`, the Ki is more than 1000 nM in experiment [2], more than 1000 nM in experiment [3] and 145 nM in experiment [4].
`CN(C)CCOc1cc(F)cc(N2CCNCC2)c1`: the Ki in experiment [4] is more than 1000 nM.
On the same count and under the same terms, the value for `CN(C)CCOc1cc(N2CCNCC2)cc(F)c1F` was more than 1000 nM.
Take `CN(C)CCOc1cncc(N2CCN(C)CC2)c1`: the values for the Ki in experiment [2], in experiment [3] and in experiment [4] were more than 1000 nM, more than 1000 nM and 66.8 nM, respectively.
In experiment [4], `CN(C)CCOc1cc(F)cc(N2CCN(C)CC2)c1` showed a Ki of more than 1000 nM.
Still for that read-out and setting: the figure for `CN(C)CCOc1cc(N2CCN(C)CC2)cc(F)c1F` is more than 1000 nM.
As for `CN(C)CCOc1cncc(N2CCC2)c1`, the values for the Ki in experiment [3] and in experiment [4] were more than 1000 nM and 784 nM, respectively.
In the same order, the values of `CN(C)CCOc1cncc(N2CCCC2)c1` are more than 1000 nM and more than 1000 nM.
For the compound `CN(C)CCOc1cncc(N2CCCCC2)c1`, the Ki in experiment [3] and in experiment [4] was more than 1000 nM each time.
The compound `CN(C)CCOc1cncc(N2CCOCC2)c1` yielded a Ki in experiment [4] of more than 1000 nM.
As to `CN(C)CCOc1cncc(N2CCC(O)CC2)c1`, the Ki in experiment [3] was more than 1000 nM; in experiment [4], 613 nM.
Compound `CN1CCCC1c1cncc(C2CCCN2C)c1` (stereo not given) displayed a Ki in experiment [5] of 1180 nM.
In general, ED50 refers to the dose that gives a 50% effect, or the effect in half of the subjects. A high value points to weaker potency. As to `CN(C)CCOc1cccnc1`, in the experiment with Mus musculus [6], the ED50 came out at 15 mg/kg.
The compound `CCN(CC)CCOc1ccc2c(c1)C(=O)c1cc(OCCN(CC)CC)ccc1-2` [TILORONE] yielded an inhibition constant Ki in experiment [7] of 110 nM.
